The text below walks through data of ChEMBL document CHEMBL1201862, “PubChem BioAssay data set” (2004).

Active and inactive are the calls of the source. Cut-off read from the data, not from the text of the source, for most assays here: actives have a measured IC50 and inactives only a lower limit. A value given as a limit tells only on which side of the number the result lay.

Assay [1] has as its target T1, Sentrin-specific protease 8 (Homo sapiens, UniProt Q96LD8).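 Note: luminescence read-out of SENP8 inhibition, dose-response confirmation following an ultra-high-throughput screen.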
T1 sequence (Q96LD8 whole entry): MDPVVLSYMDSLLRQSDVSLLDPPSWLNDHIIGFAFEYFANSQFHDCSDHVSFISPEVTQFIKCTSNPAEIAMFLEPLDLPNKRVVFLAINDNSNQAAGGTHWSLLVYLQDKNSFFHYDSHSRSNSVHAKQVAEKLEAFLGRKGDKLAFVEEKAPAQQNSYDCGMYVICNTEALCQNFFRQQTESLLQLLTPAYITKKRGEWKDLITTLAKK
It counts as functional.

Assay [2] has as its target T2, Sentrin-specific protease 7 (Homo sapiens, UniProt Q9BQF6).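 Note: Luminescence-based dose-response confirmation of ultra-high-throughput screening hits, measuring inhibition of SENP7.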
T2 sequence (Q9BQF6 whole entry): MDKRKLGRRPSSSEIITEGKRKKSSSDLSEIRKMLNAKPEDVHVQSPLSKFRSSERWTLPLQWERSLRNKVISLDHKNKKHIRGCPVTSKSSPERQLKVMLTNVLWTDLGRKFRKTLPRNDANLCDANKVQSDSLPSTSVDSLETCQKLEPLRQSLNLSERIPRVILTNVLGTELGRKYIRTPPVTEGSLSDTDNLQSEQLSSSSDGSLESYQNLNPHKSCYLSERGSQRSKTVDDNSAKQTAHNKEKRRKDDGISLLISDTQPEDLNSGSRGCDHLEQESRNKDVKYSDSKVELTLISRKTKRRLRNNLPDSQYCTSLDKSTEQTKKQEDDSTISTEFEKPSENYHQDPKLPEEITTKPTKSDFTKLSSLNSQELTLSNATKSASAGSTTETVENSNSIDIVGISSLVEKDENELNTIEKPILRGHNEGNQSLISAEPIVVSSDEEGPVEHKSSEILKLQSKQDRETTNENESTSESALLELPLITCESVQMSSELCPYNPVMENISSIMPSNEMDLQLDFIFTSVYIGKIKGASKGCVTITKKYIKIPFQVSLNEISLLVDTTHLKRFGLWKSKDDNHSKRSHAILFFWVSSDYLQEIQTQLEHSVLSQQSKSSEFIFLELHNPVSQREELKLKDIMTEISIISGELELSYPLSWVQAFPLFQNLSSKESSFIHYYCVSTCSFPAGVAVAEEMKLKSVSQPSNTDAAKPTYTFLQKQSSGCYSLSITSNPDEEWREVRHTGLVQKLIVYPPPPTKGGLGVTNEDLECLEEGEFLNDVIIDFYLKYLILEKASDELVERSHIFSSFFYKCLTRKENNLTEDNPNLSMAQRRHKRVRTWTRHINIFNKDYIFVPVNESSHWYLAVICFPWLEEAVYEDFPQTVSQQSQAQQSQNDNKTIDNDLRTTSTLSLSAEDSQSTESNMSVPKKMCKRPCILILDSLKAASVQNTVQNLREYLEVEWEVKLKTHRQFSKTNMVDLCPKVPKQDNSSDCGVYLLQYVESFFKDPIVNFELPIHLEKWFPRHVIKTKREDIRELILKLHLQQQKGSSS
It counts as functional.

Assay [3] can be described thus: Trypanosoma cruzi growth suppression in host cells – NIH3T3 host cells, beta-gal luminescence, confirmation (AID 2044).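 Note: intracellular parasites grown in NIH/3T3 mouse fibroblasts as host cells; luminescent beta-galactosidase reporter signal from transgenic T. cruzi replicating inside host cells; inhibitors lower the luminescence signal.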 It counts as functional, cell-based.
For assay [4], the system named is H4. Nature of the assay: Inhibitors of Prion Protein 5' UTR mRNA Measured in Cell-Based System Using Plate Reader - 2078-01_Inhibitor_Dose_DryPowder_Activity. [Related pubchem assays (depositor defined):AID488894]. Conditions: Homo sapiens. It counts as functional.
Assay [5] deals with HEK293. Nature of the assay: cells. It counts as functional, cell-based. Particulars: Homo sapiens.
The subject of assay [6] is HEK293. Nature of the assay: cells. It counts as functional, cell-based. Particulars: Homo sapiens. The source holds these as a separate data set.
In assay [7] the target is T3, SUMO-activating enzyme (Homo sapiens, UniProt Q9UBT2). Nature of the assay: blockers of UBC9-mediated SUMO conjugation – biochemical, AlphaScreen, SUMOylation inhibitor project, confirmation (AID 2018). It counts as functional.
The target in assay [8] is T4, Histone-lysine N-methyltransferase NSD2 (Homo sapiens, UniProt O96028).
T4 sequence (O96028 whole entry): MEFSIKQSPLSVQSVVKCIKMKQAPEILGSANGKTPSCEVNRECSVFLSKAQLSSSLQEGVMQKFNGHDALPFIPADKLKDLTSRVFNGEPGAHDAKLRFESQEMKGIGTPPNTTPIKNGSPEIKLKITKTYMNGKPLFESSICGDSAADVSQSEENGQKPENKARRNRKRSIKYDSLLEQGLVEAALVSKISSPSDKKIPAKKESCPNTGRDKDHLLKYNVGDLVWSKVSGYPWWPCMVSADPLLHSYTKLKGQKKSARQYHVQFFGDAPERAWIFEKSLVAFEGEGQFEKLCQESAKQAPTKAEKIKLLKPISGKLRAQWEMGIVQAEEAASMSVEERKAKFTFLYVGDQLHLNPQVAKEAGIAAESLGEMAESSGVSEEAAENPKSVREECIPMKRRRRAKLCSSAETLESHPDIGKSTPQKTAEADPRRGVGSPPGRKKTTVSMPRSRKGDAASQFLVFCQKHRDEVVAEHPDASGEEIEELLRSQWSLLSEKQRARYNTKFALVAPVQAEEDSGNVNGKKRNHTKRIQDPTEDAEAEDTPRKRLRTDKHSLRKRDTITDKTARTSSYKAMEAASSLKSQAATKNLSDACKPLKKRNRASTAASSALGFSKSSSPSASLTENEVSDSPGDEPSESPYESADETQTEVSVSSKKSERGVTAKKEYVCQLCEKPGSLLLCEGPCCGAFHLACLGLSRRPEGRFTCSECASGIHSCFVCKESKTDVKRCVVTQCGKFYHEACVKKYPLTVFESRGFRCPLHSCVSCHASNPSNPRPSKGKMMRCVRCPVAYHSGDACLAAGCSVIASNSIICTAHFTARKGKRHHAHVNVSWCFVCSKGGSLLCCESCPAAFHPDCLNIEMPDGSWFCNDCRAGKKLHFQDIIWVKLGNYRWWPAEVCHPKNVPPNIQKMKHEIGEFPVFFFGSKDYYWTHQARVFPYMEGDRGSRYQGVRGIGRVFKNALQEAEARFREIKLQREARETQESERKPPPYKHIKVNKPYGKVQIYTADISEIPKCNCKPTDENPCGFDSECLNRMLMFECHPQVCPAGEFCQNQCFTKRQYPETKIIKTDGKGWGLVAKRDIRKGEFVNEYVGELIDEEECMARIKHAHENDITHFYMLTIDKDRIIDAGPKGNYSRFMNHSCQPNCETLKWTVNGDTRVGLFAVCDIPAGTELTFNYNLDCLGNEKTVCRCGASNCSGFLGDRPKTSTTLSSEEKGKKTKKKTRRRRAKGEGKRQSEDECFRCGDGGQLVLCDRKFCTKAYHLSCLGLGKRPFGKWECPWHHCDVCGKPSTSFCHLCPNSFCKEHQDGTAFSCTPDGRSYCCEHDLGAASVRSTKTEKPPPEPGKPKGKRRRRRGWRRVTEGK
It counts as biochemical.

Assay [9] has as its target T3, SUMO-activating enzyme. Nature of the assay: blockers of SAE1/SAE2–UBC9 SUMO transfer – biochemical, HTRF, uHTS, primary screen (AID 2006). It counts as protein-complex assay.

T3 sequence (Q9UBE0 whole entry): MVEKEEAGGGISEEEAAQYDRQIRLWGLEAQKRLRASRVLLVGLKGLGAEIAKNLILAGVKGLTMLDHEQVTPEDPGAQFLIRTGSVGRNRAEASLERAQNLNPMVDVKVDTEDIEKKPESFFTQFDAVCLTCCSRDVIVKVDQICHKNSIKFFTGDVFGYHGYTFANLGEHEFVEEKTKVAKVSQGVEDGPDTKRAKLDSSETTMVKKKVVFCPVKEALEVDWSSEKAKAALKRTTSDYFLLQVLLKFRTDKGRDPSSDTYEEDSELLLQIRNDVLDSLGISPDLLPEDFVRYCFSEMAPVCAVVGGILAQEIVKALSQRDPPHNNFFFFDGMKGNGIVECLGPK
T3 sequence (Q9UBT2 whole entry): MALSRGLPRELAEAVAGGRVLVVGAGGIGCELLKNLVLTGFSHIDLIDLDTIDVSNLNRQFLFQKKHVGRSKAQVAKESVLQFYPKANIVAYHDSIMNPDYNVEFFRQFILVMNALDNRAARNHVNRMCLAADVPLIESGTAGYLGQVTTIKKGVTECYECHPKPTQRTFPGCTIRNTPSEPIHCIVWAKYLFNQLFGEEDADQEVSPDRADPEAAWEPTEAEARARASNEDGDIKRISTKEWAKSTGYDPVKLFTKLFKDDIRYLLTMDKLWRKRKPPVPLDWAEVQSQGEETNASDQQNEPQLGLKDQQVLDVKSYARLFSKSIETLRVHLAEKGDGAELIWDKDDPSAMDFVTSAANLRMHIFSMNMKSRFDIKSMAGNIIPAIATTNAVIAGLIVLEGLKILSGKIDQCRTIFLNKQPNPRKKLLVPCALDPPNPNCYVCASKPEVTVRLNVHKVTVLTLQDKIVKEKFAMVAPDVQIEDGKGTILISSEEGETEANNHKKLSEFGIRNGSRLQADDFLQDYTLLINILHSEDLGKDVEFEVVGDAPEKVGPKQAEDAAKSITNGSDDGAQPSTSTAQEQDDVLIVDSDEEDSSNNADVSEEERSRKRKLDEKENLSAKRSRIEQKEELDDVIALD

Regarding `Cc1ccc(C(=O)NNc2cc(N3CCCC3)nc(N3CCCC3)n2)cc1`, the IC50 is 4.6 µM (active) in [1] and 1.74 µM (active) in [2]. The EC50 in [3] is 2.3 µM (active).

In the case of `Cc1cc(/C=C2\SC(=S)N(C)C2=O)c(C)n1-c1ccc(O)cc1`, the AC50 in assay [4] was 0.181 µM (active). The IC50 was 8.79 µM (active) in assay [1], 5.42 µM (active) in assay [2], 11.2 µM (active) in assay [5] and > 20 µM (inactive) in assay [6].

As for `COC(=O)c1cccc(-c2ccc(C(c3c(C)n[nH]c3O)c3c(C)n[nH]c3O)o2)c1`, the IC50 in assay [7] is 9.36 µM (active); in assay [9], > 100 µM (inactive). In [8], the AC50 was > 20 µM (inactive).

Take `O=C1/C(=N\c2cccc(O)c2)C(N2CCCCC2)=C(O)c2ccccc21`: the AC50 in assay [8] is 8.12 µM (active).
